The values below come from US20230365568A1, “PLK1 POLO BOX DOMAIN INHIBITORS AND METHOD OF TREATING CANCER” (The United States of America,as represented by the …, priority 2020, published 2023).

Series [1] in a line: Aqueous solubility. The note with it: aqueous solubility.
The nature of series [2]: Microsomal metabolic stability, rat liver microsomes (RLM). The note with it: rat liver microsomes.

Take `O=C(NCCCn1c(=O)c2cc(F)ccc2n2c(=S)[nH]nc12)c1ccc(Cn2ccnc2)cc1` [compound 119, 4-((1H-imidazol-1-yl)methyl)-N-(3-(7-fluoro-5-oxo-1-thioxo-1,2-dihydro-[1,2,4]triazolo[4,3-a]quinazolin-4(5H)-yl)propyl)benzamide]: the “Solub.” value in series [1] amounted to 13.7 µg/mL. The “t1/2 (min, RLM)” value in series [2] is recorded as above 30 min.
For the molecule `CC(C)NC(=O)CCn1c(=O)c2cc(Cl)ccc2n2c(=S)[nH]nc12` [compound 57], the “Solub.” value in series [1] stood at 8.1 µg/mL.
Turning to `O=c1c2cc(F)ccc2n2c(=S)[nH]nc2n1CCc1ccccn1` [compound 83], the “PAMPA” value was determined as 355 ×10⁻⁶ cm/s. The PAMPA permeability entry (pH 7.4) is on record as “moderate to good permeability”. Further, the “Solub.” value in series [1] was found to be 13.0 µg/mL. In addition, the “t1/2 (min, RLM)” value in series [2] was above 30 min.
Consider `CS(=O)(=O)NCCCn1c(=O)c2cc(F)ccc2n2c(=S)[nH]nc12` [compound 76], for which the “Solub.” value in series [1] amounted to 34 µg/mL. In addition, the “t1/2 (min, RLM)” value in series [2] is above 30 min.
As to `O=C(NCCCn1c(=O)c2cc(F)ccc2n2c(=S)[nH]nc12)C1CCCNC1` (centres unmarked) [compound 113], the “Solub.” value in series [1] stood at 29.6 µg/mL. Further, the “t1/2 (min, RLM)” value in series [2] is recorded as above 30 min.
With `CCCn1c(=O)c2ccccc2n2c(=S)n(CN(CC)CC(C)C)nc12` [compound 38], in series [1], the “Solub.” value stood at 8.7 µg/mL.
As to `O=C(NCCCn1c(=O)c2cc(F)ccc2n2c(=S)[nH]nc12)c1ccccc1` [compound 74], the “PAMPA” value was 267 ×10⁻⁶ cm/s. Also, in series [1], the “Solub.” value stood at 21.9 µg/mL. The “t1/2 (min, RLM)” value in series [2] is recorded as above 30 min.
Consider `O=c1c2cc(F)ccc2n2c(=S)[nH]nc2n1CCN1CCC(F)(F)CC1` [compound 89], for which the “PAMPA” value was 234 ×10⁻⁶ cm/s. In addition, the “Solub.” value in series [1] was determined as 20.2 µg/mL. Moreover, the “t1/2 (min, RLM)” value in series [2] is listed as above 30 min.
In the case of `O=c1c2cc(F)ccc2n2c(=S)[nH]nc2n1CCN1CCOCC1` [compound 90], the “PAMPA” value came to 67.0 ×10⁻⁶ cm/s. Further, the “Solub.” value in series [1] is above 52 µg/mL. Besides, the “t1/2 (min, RLM)” value in series [2] is above 30 min.
As to `O=c1c2cc(F)ccc2n2c(=S)[nH]nc2n1CCC1CCC(F)(F)CC1` [compound 93], the “PAMPA” value amounted to 201 ×10⁻⁶ cm/s. Besides, in series [1], the “Solub.” value was below 1 µg/mL. Also, the “t1/2 (min, RLM)” value in series [2] is reported as above 30 min.
Consider `CC(C)(C)OC(=O)NCCCCCC(=O)NCCCn1c(=O)c2cc(F)ccc2n2c(=S)[nH]nc12` [Cmpd 101], for which the “PAMPA” value is 405 ×10⁻⁶ cm/s.
For `NS(=O)(=O)CCCC(=O)NCCCn1c(=O)c2cc(F)ccc2n2c(=S)[nH]nc12` [compound 107], the “PAMPA” value was determined as 3.0 ×10⁻⁶ cm/s. Besides, the “Solub.” value in series [1] came to 42.4 µg/mL. Further, the “t1/2 (min, RLM)” value in series [2] is listed as above 30 min.
On to `O=c1c2cc(F)ccc2n2c(=S)[nH]nc2n1CCCc1ccccc1` [compound 53], for which, in series [1], the “Solub.” value is below 1 µg/mL. Also, the “t1/2 (min, RLM)” value in series [2] is on record as 8.8 min.
On to `O=C(NCCCn1c(=O)c2cc(F)ccc2n2c(=S)[nH]nc12)C1CCCC1` [compound 108], for which the “PAMPA” value came out at 155 ×10⁻⁶ cm/s. The “Solub.” value in series [1] is above 58 µg/mL. For the same molecule, the “t1/2 (min, RLM)” value in series [2] is recorded as above 30 min.
The matching figures for `Nc1nnc2n(CCc3ccccc3)c(=O)c3cc(F)ccc3n12` [compound 16]: 885 ×10⁻⁶ cm/s, 2.2 µg/mL and 29.4 min.
On to `O=c1c2cc(F)ccc2n2c(=S)[nH]nc2n1CCc1ccccc1Cl` [compound 81], for which the “Solub.” value in series [1] is 3.0 µg/mL. Besides, the “t1/2 (min, RLM)” value in series [2] was found to be 22.8 min.
Consider `O=c1c2cc(Cl)ccc2n2c(=S)[nH]nc2n1CCC(F)(F)F` [compound 55], for which the “PAMPA” value amounted to 257 ×10⁻⁶ cm/s. The “Solub.” value in series [1] worked out at 5.1 µg/mL. Besides, the “t1/2 (min, RLM)” value in series [2] was above 30 min.
As for `O=c1c2cc(F)ccc2n2c(=S)[nH]nc2n1CCP(=O)(O)O` [compound 77], in series [1], the “Solub.” value was above 51 µg/mL.
`O=C(Cc1ccc(F)cc1)NCCCn1c(=O)c2cc(F)ccc2n2c(=S)[nH]nc12` [compound 123, N-(3-(7-fluoro-5-oxo-1-thioxo-1,2-dihydro-[1,2,4]triazolo[4,3-a]quinazolin-4(5H)-yl)propyl)-2-(4-fluorophenyl)acetamide]: the “t1/2 (min, RLM)” value in series [2] is listed as 26.3 min.
`O=C(NCCCn1c(=O)c2cc(F)ccc2n2c(=S)[nH]nc12)C1CCCCN1` (centres unmarked) [compound 112]: the “Solub.” value in series [1] was above 60 µg/mL. The “t1/2 (min, RLM)” value in series [2] is on record as above 30 min.
As to `CNC(=S)N1CN(CCc2ccccc2)C(=O)c2cc(F)ccc21` [compound 62], the “PAMPA” value amounted to 161 ×10⁻⁶ cm/s. Moreover, the “Solub.” value in series [1] amounted to 4.5 µg/mL. Also, the “t1/2 (min, RLM)” value in series [2] is listed as 2.2 min.
Regarding `CN1CCN(CCn2c(=O)c3cc(F)ccc3n3c(=S)[nH]nc23)CC1` [compound 91], the “Solub.” value in series [1] was above 54 µg/mL. The “t1/2 (min, RLM)” value in series [2] was above 30 min.
For the molecule `NCCn1c(=O)c2cc(F)ccc2n2c(=S)[nH]nc12` [compound 67], the “Solub.” value in series [1] is above 41 µg/mL. The “t1/2 (min, RLM)” value in series [2] is on record as above 30 min.
Turning to `O=C(NCCCn1c(=O)c2cc(F)ccc2n2c(=S)[nH]nc12)C1CCOCC1` [compound 115], the “PAMPA” value stood at 8.0 ×10⁻⁶ cm/s. Also, in series [1], the “Solub.” value was below 1 µg/mL.
Consider `O=c1c2ccccc2n2c(=O)[nH]nc2n1CCc1ccccc1` [compound 15], for which the “Solub.” value in series [1] was below 1 µg/mL.
On to `CC(C)OCCCn1c(=O)c2cc(Cl)ccc2n2c(=S)[nH]nc12` [compound 56], for which, in series [1], the “Solub.” value worked out at 8.6 µg/mL.
On to `CC(C)(C)OC(=O)N1CCN(CCn2c(=O)c3cc(F)ccc3n3c(=S)[nH]nc23)CC1` [compound 92], for which, in series [1], the “Solub.” value came out at 20.5 µg/mL. The “t1/2 (min, RLM)” value in series [2] was determined as 26.3 min.
The matching figures for `CCOP(=O)(CCn1c(=O)c2cc(F)ccc2n2c(=S)[nH]nc12)OCC` [compound 78]: above 59 µg/mL and above 30 min.
With `O=C(NCCCn1c(=O)c2cc(F)ccc2n2c(=S)[nH]nc12)C1CCNCC1` [compound 114], the “Solub.” value in series [1] was above 60 µg/mL. Besides, the “t1/2 (min, RLM)” value in series [2] is above 30 min.
On to `CC(C)(C)[C@H]1CC[C@H](C(=O)NCCCn2c(=O)c3cc(F)ccc3n3c(=S)[nH]nc23)CC1` [compound 109], for which the “Solub.” value in series [1] was determined as 1.1 µg/mL. Also, the “t1/2 (min, RLM)” value in series [2] is above 30 min.
Turning to “4-(3-aminopropyl)-9-fluoro-1-thioxo-2,4-dihydro-[1,2,4]triazolo[4,3-a]quinazolin-5(1H)-one [compound 69]”, the “t1/2 (min, RLM)” value in series [2] was above 30 min.
Consider `CC(C)(C)OC(=O)CC[C@H](NC(=O)OC(C)(C)C)C(=O)NCCCn1c(=O)c2cc(F)ccc2n2c(=S)[nH]nc12` [Cmpd 103], for which the “PAMPA” value came out at 744 ×10⁻⁶ cm/s.
Regarding `Cc1nnc2n(CCc3ccccc3)c(=O)c3cc(F)ccc3n12` [compound 17], the “Solub.” value in series [1] was determined as 11.0 µg/mL. Further, the “t1/2 (min, RLM)” value in series [2] stood at 10.7 min.
As to `O=C(Cc1cccc(C(F)(F)F)c1)NCCCn1c(=O)c2cc(F)ccc2n2c(=S)[nH]nc12` [compound 132, N-(3-(7-fluoro-5-oxo-1-thioxo-1,2-dihydro-[1,2,4]triazolo[4,3-a]quinazolin-4(5H)-yl)propyl)-2-(3-(trifluoromethyl)phenyl)acetamide], the “Solub.” value in series [1] was found to be 26.8 µg/mL. Further, the “t1/2 (min, RLM)” value in series [2] is 17.3 min.
As for `CCCn1c(=O)c2ccccc2n2c(=S)n(CN(C)C3CC3)nc12` [compound 35], in series [1], the “Solub. (μg/ml)” value is on record as “Insol”.
For the molecule `CC(C)CNC(=O)CCn1c(=O)c2ccccc2n2c(=S)[nH]nc12` [compound 32], the “Solub.” value in series [1] stood at 30.8 µg/mL.
For the molecule `CN1CCCC1CCn1c(=O)c2cc(F)ccc2n2c(=S)[nH]nc12` (centres unmarked) [compound 87], the “Solub.” value in series [1] is 17.8 µg/mL. In series [2], the “t1/2 (min, RLM)” value is above 30 min.
The corresponding values for `CC(C)(C)OC(=O)CC[C@@H](NC(=O)OC(C)(C)C)C(=O)NCCCn1c(=O)c2cc(F)ccc2n2c(=S)[nH]nc12` [compound 102] are 20.4 µg/mL and 25.1 min.
Regarding `NC1CCC(C(=O)NCCCn2c(=O)c3cc(F)ccc3n3c(=S)[nH]nc23)CC1` (centres unmarked) [compound 111], the “Solub.” value in series [1] came to 38.8 µg/mL. The “t1/2 (min, RLM)” value in series [2] is reported as above 30 min.
Regarding `CC(C)(C)OC(=O)N1CC(CCn2c(=O)c3cc(F)ccc3n3c(=S)[nH]nc23)C1` [compound 86], the “PAMPA” value stood at 229 ×10⁻⁶ cm/s. The “Solub.” value in series [1] was 15 µg/mL.
For `NCCOCCOCCOCCC(=O)NCCCn1c(=O)c2cc(F)ccc2n2c(=S)[nH]nc12` [compound 98], the “Solub.” value in series [1] was found to be 36.1 µg/mL. For the same molecule, the “t1/2 (min, RLM)” value in series [2] was above 30 min.
On to `CC(C)n1c(=O)c2ccccc2n2c(=S)[nH]nc12` [compound 26], for which, in series [1], the “Solub.” value is 19.5 µg/mL.
As for `O=C(CC1CCNCC1)NCCCn1c(=O)c2cc(F)ccc2n2c(=S)[nH]nc12` [compound 116], in series [1], the “Solub.” value was found to be 37.5 µg/mL. Also, the “t1/2 (min, RLM)” value in series [2] is above 30 min.
`O=C(Cc1ccc(O)cc1)NCCCn1c(=O)c2cc(F)ccc2n2c(=S)[nH]nc12` [compound 127, N-(3-(7-fluoro-5-oxo-1-thioxo-1,2-dihydro-[1,2,4]triazolo[4,3-a]quinazolin-4(5H)-yl)propyl)-2-(4-hydroxyphenyl)acetamide]: in series [1], the “Solub.” value was found to be 31.0 µg/mL. Also, the “t1/2 (min, RLM)” value in series [2] is above 30 min.
For the molecule `CN(C)c1ccc2c(c1)c(=O)n(CCc1ccccc1)c1n[nH]c(=S)n21` [Cmpd 45], the “PAMPA” value was 356 ×10⁻⁶ cm/s.
`NCCCCCC(=O)NCCCn1c(=O)c2cc(F)ccc2n2c(=S)[nH]nc12` [compound 100]: the “Solub.” value in series [1] came out at 31.8 µg/mL. Moreover, in series [2], the “t1/2 (min, RLM)” value was above 30 min.
Turning to `O=c1c2cc(F)ccc2n2c(=S)[nH]nc2n1CCc1cccnc1` [Cmpd 84], the “PAMPA” value was below 1 ×10⁻⁶ cm/s.
On to `CCn1c(=O)c2cc(F)ccc2n2c(=S)[nH]nc12` [compound 63], for which the “Solub.” value in series [1] was above 39 µg/mL. The “t1/2 (min, RLM)” value in series [2] is above 30 min.
Regarding `CC(=O)NCCn1c(=O)c2cc(F)ccc2n2c(=S)[nH]nc12` [compound 72], the “Solub.” value in series [1] is above 47 µg/mL. Also, the “t1/2 (min, RLM)” value in series [2] was above 30 min.
